Experimental findings from PMC10121968, “Fosgonimeton, a Novel Positive Modulator of the HGF/MET System, Promotes Neurotrophic and Procognitive Effects in Models of Dementia” (Neurotherapeutics, 2022) are described below.

Non-standard residues stand in square brackets, D forms with d. Residues, ends and D or L forms follow the SMILES beside them. *: point of attachment. Hexanoyl = CCCCCC(=O)*; Ahx = NCCCCCC(=O)O

The subject of data set [1] is primary rat hippocampal neurons. Put plainly: Synaptogenesis assay (synaptobrevin-II staining). The class given is cell-based. The conditions noted are these: 8 days, vs vehicle. The method, then:
On day 0, rat hippocampal neurons from newborn pups were isolated and cultured in brain neuronal culture medium (neurobasal medium supplemented with 5% FBS, 2% B-27 supplement, and 0.003% gentamycin) at 37 °C under 5% CO2. At 1 day in vitro (DIV1), cells were transferred to a poly-D-lysine–coated 24-well plate at approximately 10,000 cells/well. Cells were then grown in […] of serum-free medium and treated with the following: 0.1% dimethyl sulfoxide (DMSO; vehicle), 10 nM dihydrotestosterone (positive control), 10 nM fosgo-AM, 1 nM fosgo-AM, 5 ng/ml HGF, or 5 ng/ml HGF + 1 nM fosgo-AM. All treatments contained a final concentration of 0.1% DMSO. For the neurite outgrowth assay, treatment media were refreshed on DIV3, and cells were processed for analysis on DIV4. For the synaptogenesis assay, treatment media were refreshed on DIV3 and DIV6, and cells were processed for analysis on DIV8. Processing for both the neurite outgrowth and the synaptogenesis assays was performed as follows: media were removed, and cells were fixed with 100% methanol for 20 min at RT before methanol was aspirated and each well was washed twice with Dulbecco’s phosphate-buffered saline (DPBS). Cells were permeabilized using 0.02% […] (ThermoFisher, Waltham, Massachusetts) in DPBS for 2 min at RT without shaking, and plates were blocked with 5% bovine serum albumin (BSA) in DPBS for 1 h at RT. […] Ten images of single cells from a total of 2 assays were analyzed using NeuroJ plug-in for ImageJ to assess neurite outgrowth, as neurite length and the number of branches per neuron were counted for each cell. For the synaptogenesis assay, synaptic count (number of synapses) and synaptic strength (relative abundance of presynaptic vesicles per synapse as measured by synaptobrevin-II fluorescence intensity) were quantified for each cell. Data were assessed for normality (Shapiro–Wilk) and homoscedasticity (Brown-Forsythe). […]

The nature of data set [2]: Fosgonimeton CNS distribution in rats. The class given is in vivo, rat. As to conditions: 12 mg/kg fosgonimeton SC. The procedure: Three male Sprague Dawley rats per time point were given 12 mg/kg fosgonimeton via SC injection. At 0.16, 0.5, and 1 h after dosing, animals were humanely killed and perfused with chilled saline. Brains were collected and dissected into the following brain regions: whole brain, striatum, olfactory bulb, hippocampus, cerebellum, cerebral cortex, and brainstem. Brain regions were homogenized and the exposures of fosgonimeton and fosgo-AM were determined by LC/MS/MS.

What is called Tmax is the time at which the peak concentration occurs. For `CCCCCC(=O)N[C@@H](Cc1ccc(O)cc1)C(=O)N[C@H](C(=O)NCCCCCC(N)=O)[C@@H](C)CC` [fosgo-AM] (Hexanoyl-Tyr-Ile-[Ahx]-NH2), the “number of synapses (synaptic count)” value in data set [1] (1 nM fosgo-AM + 5 ng/mL HGF) was “significantly increased the number of synapses”. The “synaptobrevin-II immunofluorescence intensity (synaptic strength)” value in data set [1] (1 nM fosgo-AM + 5 ng/mL HGF) and in data set [1] (1 nM) was “significantly enhanced immunofluorescence intensity of synaptobrevin-II” in each case. Moreover, the “time to maximum concentration (Tmax) in brain regions” value in data set [2] (all regions) amounted to 10 min. Further, the “Cmax, ng/g ± SEM” value in data set [2] (brainstem) stood at 58.3 ± 11.3 ng/g; in data set [2] (cerebellum), 23.8 ± 4.1 ng/g; in data set [2] (cerebral cortex), 36.5 ± 12.0 ng/g; in data set [2] (hippocampus) it was 49.8 ± 30.5 ng/g; in data set [2] (olfactory bulb), 43.7 ± 7.3 ng/g; in data set [2] (striatum), 24.1 ± 12.8 ng/g. In data set [2] (whole brain), the “Cmax, ng/g ± SEM” value came out at 31.9 ± 23.8 ng/g. The “Tmax” value in data set [2] (brainstem), in data set [2] (cerebellum), in data set [2] (cerebral cortex), in data set [2] (hippocampus), in data set [2] (olfactory bulb) and in data set [2] (striatum) was 9.6 min throughout. The “Tmax” value in data set [2] (whole brain) came out at 9.6 min.
